For 1 compound, Activity and AUC(0-t) results are on record in ChEMBL document CHEMBL6087446, “Hypoxia Activated Nitric Oxide Donor Compounds for the Prevention and Treatment of Myocardial Hypoxia-Induced Injury” (J Med Chem, 2025).

The nature of series [1]: Toxicity in male C57 mouse assessed as physiological distress at 900 mg/kg, ip measured after 12 hrs of administration. Type of series: organism-based. As to conditions: in vivo.
For series [2], the system named is Mus musculus. As to the kind of experiment: Prevention of myocardial hypoxia injury in isoproterenol-induced male C57 mouse myocardial injury model assessed as heart weight ratio at 8 mg/kg, ip once daily for 3 consecutive days (reference value: 0.60%). In kind it is functional. As to conditions: time 3 day.
Series [3] concerns Mus musculus. The experiment in a line: Prevention of myocardial hypoxia injury in isoproterenol-induced male C57 mouse myocardial injury model assessed as decrease in mTORC1 expression at 8 to 16 mg/kg, ip once daily for 3 consecutive days by immunohistochemistry. Type of series: functional, organism-based. Particulars: dose 8-16 mg/kg, time 3.0 day.
Series [4] deals with H9c2. The experiment in a line: Induction of NO release in rat H9c2 cells under normoxic condition at 10 uM measured for 4 hrs by Griess reagent assay relative to control. In kind it is functional. In general terms: The Griess reaction detects nitrite, a stable product of nitric oxide.
The test system of series [5] is Mus musculus. As to the kind of experiment: Prevention of myocardial hypoxia injury in isoproterenol-induced male C57 mouse myocardial injury model assessed as prevention of lamellar collagen fiber deposition at 8 to 16 mg/kg, ip once daily for 3 consecutive days by Masson staining based analysis. Particulars: dose 8-16 mg/kg, time 3.0 day. Type of series: functional, organism-based.

The test system of series [6] is Mus musculus. The experiment in a line: Prevention of myocardial hypoxia injury in isoproterenol-induced male C57 mouse myocardial injury model assessed as heart weight ratio at 16 mg/kg, ip once daily for 3 consecutive days (reference value: 0.60%). In kind it is functional. Particulars: time 3 day.
Series [7] has as its system H9c2. As to the kind of experiment: Prevention of hypoxia-induced ACE expression in rat H9c2 cells assessed as inhibition of ACE overexpression at 10 uM measured after 4 hrs incubation. In kind it is functional, cell-based.
Series [8] in a line: Toxicity in male C57 mouse assessed as adverse effect at 900 mg/kg, ip measured up to 14 days observation period. Type of series: organism-based. Particulars: in vivo, 336 h, time < 14 day.
In series [9] the test system is Mus musculus. As to the kind of experiment: Prevention of myocardial hypoxia injury in isoproterenol-induced male C57 mouse myocardial injury model assessed as reduction in cardiac troponin (CK) at 5 mg/kg, ip once daily for 3 consecutive days by immunohistochemistry. Particulars: time 3.0 day. Type of series: functional, organism-based.
A short description of series [10]: AUC (0 to last) in female Balb/c at 8 mg/kg, ip mouse measured up to 24 hrs by LC-MS/MS analysis. In kind it is ADME, organism-based. As to conditions: in vivo.
Series [11] concerns Mus musculus. As to the kind of experiment: Prevention of myocardial hypoxia injury in isoproterenol-induced male C57 mouse myocardial injury model assessed as increase in NO level in heart tissue at 8 mg/kg, ip once daily for 3 consecutive days. In kind it is functional, organism-based. Particulars: time 3.0 day.
The test system of series [12] is H9c2. As to the kind of experiment: Induction of NO release in rat H9c2 cells under hypoxia condition at 10 uM by Griess reagent assay relative to control. Type of series: functional.
Series [13] concerns Mus musculus. The experiment in a line: Prevention of myocardial hypoxia injury in isoproterenol-induced male C57 mouse myocardial injury model assessed as increase in NO level in myocardial tissue at 8 to 16 mg/kg, ip once daily for 3 consecutive days. Type of series: functional, organism-based. Particulars: dose 8-16 mg/kg, time 3.0 day.
The subject of series [14] is Mus musculus. The experiment in a line: Prevention of myocardial hypoxia injury in isoproterenol-induced male C57 mouse myocardial injury model assessed as reduction in cardiac troponin (CK) at 8 to 16 mg/kg, ip once daily for 3 consecutive days by immunohistochemistry. In kind it is functional, organism-based. As to conditions: dose 8-16 mg/kg, time 3.0 day.

Activity calls are given as the source filed them. No cut-off for these calls is given here.

Regarding `CN(N=O)c1ccc(OCc2ccc([N+](=O)[O-])c(F)c2)cc1`, the Activity result is “Non-toxic” in series [1]; 0.54% in the series with Mus musculus [2]; 20% in the series on H9c2 [4]; 0.51% in the series on Mus musculus [6]; “Non-toxic” in series [8]; 26.54% in the series with H9c2 [12]. In addition, the outcome in the series with Mus musculus [3], in the series with Mus musculus [5], in the series on H9c2 [7], in the series with Mus musculus [9], in the series on Mus musculus [11] and with Mus musculus [13] was Active. In addition, the result with Mus musculus [14] was Active. Further, in [10], the AUC(0-t) at 24 h came to 626 ng·h/mL.

Usually AUC(0-t) stands for the area under the concentration-time curve up to a stated or last time point.
